In publication PMC6268433, “New Sorafenib Derivatives: Synthesis, Antiproliferative Activity Against Tumour Cell Lines and Antimetabolic Evaluation” (Molecules, 2012):
Where two headings read alike, the source gives them in different places.

Tests used:
[1] = tested on: protein synthesis in CEM cells; experiment: Antimetabolic activity: [4,5-3H]Leu incorporation (protein synthesis) in CEM cell cultures; assay type: cell-based; details: Homo sapiens, CCRF-CEM, ~20 h, TCA-insoluble material
Excerpt: (§1) A variety of compounds (2a, 3a, 4a with a cycloalkyl substituent directly attached to nitrogen atom, 2c, 3c, 4c with a cycloalkyl bound to nitrogen through a short spacer and 2e, 3e, 4e with an aromatic substituent) have been investigated on their inhibitory activity against DNA, RNA and protein synthesis in CEM cell cultures. The compounds were equally inhibitory to dThd (DNA synthesis), Urd (RNA synthesis) and Leu (protein synthesis) incorporation into TCA-insoluble cell material. The 2 series of compounds were least inhibitory whereas the 4 series were most inhibitory (IC50 in the lower micromolar range). Their antimetabolic IC50 values closely corresponded to their antiproliferative IC50 values. They also behaved as sorafenib in terms of antimetabolic potential (Table 3).
(§2) The procedures have been modified from previously described methods. Human CEM cells were seeded in 96-well microtiter plates at 10 × 10^4 cells/200 µL-well in the presence of serial dilutions of the tested compounds. Then, 0.25 µCi of [CH3-^3H]dThd (radiospecificity: 52 Ci/mmol) or 1 µCi of [5-^3H]Urd (radiospecificity: 26 Ci/mmol) or [4,5-^3H]Leu (radiospecificity: 160 Ci/mmol) were added and the drug-exposed tumour cell cultures further incubated at 37 °C for ~20 h. Then the content of each well was transfered to glass fiber discs (Wattman, GE Healthcare, Maidstone, UK), mounted on a manifold (Millipore, Billerica, MA, USA) and subsequently washed with PBS (to remove the radiolabel material that has not been incorporated in the cellular macromolecules), 10% and 5% trichoroacetic acid (TCA) (to precipitate DNA, RNA and proteins) and ethanol. Then, the radioactivity (TCA precipitate) associated with each disc was determined in a liquid scintillation counter (Packard, Palo Alto, CA, USA).

[2] = tested on: DNA synthesis in CEM cells; experiment: Antimetabolic activity: [CH3-3H]dThd incorporation (DNA synthesis) in CEM cell cultures; assay type: cell-based; details: Homo sapiens, CCRF-CEM, ~20 h, TCA-insoluble material
Excerpt: as §1, §2

HeLa (cervix carcinoma) = experiment: Cytostatic activity, Coulter counter; assay type: cell-based, human; details: 72 h, cell number by Coulter counter, read-out: Tumour cell growth/IC50 HeLa
Description: (§3) The experiments were carried out on six human tumour and one murine cell lines, which are derived from five solid tumour types and two (one murine and one human) suspension tumour cell lines. The following cell lines were used: HCT 116 (colon carcinoma), SW 620 (colon carcinoma), MCF-7 (breast carcinoma), H 460 (lung carcinoma), L1210 (murine leukemia), CEM (human lymphoma) and HeLa (cervix carcinoma). […] Compounds 3d and 3e with a benzene ring in the amide moiety, exerted a somewhat stronger (but still rather poor) cytostatic effect (IC50 ≈ 20-90 µM). […] The compounds were also equally cytostatic against primary human embryonic lung (HEL) fibroblast cells (Table 2). The obtained data clearly point to the obligatory presence of the [4-chloro-3-(trifluoromethyl)phenyl]carbamoyl group being crucial for high potency. Also, the 4a–e series of compounds are far more lipophilic than the 2 and 3 series of compounds, which may be related to their increased cytostatic potential.
(§4) The cytostatic activity of the tested compounds against murine leukemia L1210, human cervix carcinoma HeLa, human embrionic lung (HEL) and T-lymphocyte CEM cells was determined with cells grown in suspension (L1210, CEM) or monolayers (HeLa, HEL) in 200 µL-wells of 96-well microtiter plates (initial cell number: 5–7.5 × 10^4 cells/well). After 48 (L1210) or 72 (CEM, HeLa, HEL) h, the tumour cell number was determined by the use of a Coulter counter.

[3] = tested on: RNA synthesis in CEM cells; experiment: Antimetabolic activity: [5-3H]Urd incorporation (RNA synthesis) in CEM cell cultures; assay type: cell-based; details: Homo sapiens, CCRF-CEM, ~20 h, TCA-insoluble material
Excerpt: as §1, §2

SW 620 (colon carcinoma) = experiment: Cytostatic activity, MTT assay; assay type: cell-based, human; details: read-out: Tumour cell growth/IC50 SW 620
Description: as §3
(§5) HCT 116, SW 620, MCF-7, and H 460 cells were cultured as monolayers and maintained in Dulbecco’s modified Eagle medium (DMEM), supplemented with 10% fetal bovine serum (FBS), 2 mmol·L^–1 L-glutamine, 100 U·mL^–1 penicillin and 100 μg·mL^–1 streptomycin in a humidified atmosphere with 5% CO2 at 37 °C. The growth inhibition activity was assessed as described previously, according to the slightly modified procedure of the National Cancer Institute, Developmental Therapeutics Program. Briefly, the cells were seeded onto standard 96-well microtiter plates on day 0. The cell concentrations were adjusted according to the cell population doubling time (PDT): 3000 cells/well for HCT116 and SW 620 cell lines (PDT = 20–24 h) and 4,000 cells/well for MCF-7 cell lines (PDT = 33 h). Tested agents were then added in five consecutive 10-fold dilutions (10^–8 to 10^–4 mol·L^–1) and incubated for further 72 h. Working dilutions were freshly prepared on the day of testing. The solvent (DMSO) was also tested for eventual inhibitory activity by adjusting its concentration to be the same as in working concentrations (maximal concentration of DMSO was 0.25%). After 72 h of incubation, the cell growth rate was evaluated by performing the MTT assay (Promega) which detects dehydrogenase activity in viable cells. The absorbency (OD, optical density) was measured on a microplate reader at 570 nm. Each test point was performed in quadruplicate in at least three individual experiments. The results are expressed as IC50, which is the concentration necessary for 50% of inhibition. […] Each result is a mean value from three separate experiments.

[4] = tested on: HCT 116 (colon carcinoma); experiment: Cytostatic activity, MTT assay; assay type: cell-based, human; details: read-out: Tumour cell growth/IC50 HCT 116
Description: as §3, §5

MCF-7 (breast carcinoma) = experiment: Cytostatic activity, MTT assay; assay type: cell-based, human; details: read-out: Tumour cell growth/IC50 MCF-7
Description: as §3, §5

H 460 (lung carcinoma) = experiment: Cytostatic activity, MTT assay; assay type: cell-based, human; details: read-out: Tumour cell growth/IC50 H 460
Description: as §3, §5

CaCo-2 cell cultures = experiment: Uptake at apical side and release at basolateral side of CaCo-2 cell cultures; assay type: in vitro ADME, human; details: 100 µmol·L^–1 at apical side, 0-24 h, HPLC
Excerpt: Derivatives 2a, 3a and 4a have been examined for their efficiency of uptake at the apical site and subsequent delivery at the basolateral site of colon carcinoma CaCo-2 cell cultures. This model system can be used to predict the potential of a drug to show oral bioavailability. Sorafenib was included as the reference compound. […] The molecular basis of this phenomenon is yet unclear.
Figure 1 Release of the tested compounds at the basolateral side by CaCo-2 cell cultures. Hundred micromolar concentrations of the tested compounds were added at the apical side of confluent CaCo-2 cell cultures, and the appearance of the intact tested compound at the basolateral side was measured by HPLC analysis.
Human colon carcinoma CaCo-2 cells were seeded in the inner wells of a double-chamber-well-tray at 150,000 cells (0.5 mL) per 1 mL-well. The outer wells also contain 0.5 mL medium (without cells). After the cells were grown to confluency (~2 days) at 37 °C in a humidified CO2-controlled atmosphere, 100 µmol·L^–1 tested compound (final concentration) was added to the inner well, and the medium from the outer wells was replaced by 800 µL PBS (containing 10% foetal bovine serum). At different time points (i.e., 0, 2, 4, 6, 8 and 24 h), 50 µL was removed from the outer wells and mixed with 100 µL cold methanol. The mixture was left on ice for 10 min, centrifuged to remove the precipitate, and the supernatant was analysed by HPLC (reversed phase) to determine the drug concentration that appeared in the outer wells (reflecting basolateral drug efflux) in function of time.

CEM (human lymphoma) = experiment: Cytostatic activity, Coulter counter; assay type: cell-based; details: 72 h, cell number by Coulter counter, read-out: Tumour cell growth/IC50 CEM
Description: as §3, §4

[5] = tested on: primary human embryonic lung (HEL) fibroblast cells; experiment: Cytostatic activity, Coulter counter; assay type: cell-based; details: 72 h, cell number by Coulter counter, primary fibroblasts
Description: as §3, §4

L1210 (murine leukemia) = experiment: Cytostatic activity, Coulter counter; assay type: cell-based; details: 48 h, cell number by Coulter counter, read-out: Tumour cell growth/IC50 L1210
Description: as §3, §4

[6] = tested on: panel of carcinoma, lymphoma and leukemia tumour cell lines; experiment: Cytostatic activity across the panel of tumour cell lines; assay type: cell-based; details: Table 2; read-out: IC50 (cytostatic effect, range over cell lines)
Description: as §3, with “The obtained data clearly point to the obligatory presence of the [4-chloro-3-(trifluoromethyl)phenyl]carbamoyl group being crucial for high potency. Also, the 4a–e series of compounds are far more lipophilic than the 2 and 3 series of compounds, which may be related to their increased cytostatic potential.” left out
HCT 116, SW 620, MCF-7, and H 460 cells were cultured as monolayers and maintained in Dulbecco’s modified Eagle medium (DMEM), supplemented with 10% fetal bovine serum (FBS), 2 mmol·L^–1 L-glutamine, 100 U·mL^–1 penicillin and 100 μg·mL^–1 streptomycin in a humidified atmosphere with 5% CO2 at 37 °C. The growth inhibition activity was assessed as described previously, according to the slightly modified procedure of the National Cancer Institute, Developmental Therapeutics Program. […] After 72 h of incubation, the cell growth rate was evaluated by performing the MTT assay (Promega) which detects dehydrogenase activity in viable cells. The absorbency (OD, optical density) was measured on a microplate reader at 570 nm. […]

23 cell lines = tested on: 23 cell lines; set-up: method as in PMID 20672370; details: median over 23 cell lines; cited from earlier work

Compound	IC50 [1] [µM]	IC50 [2] [µM]	IC50 (HeLa (cervix carcinoma); Homo sapiens, HeLa) [µM]	IC50 [3] [µM]	IC50 (SW 620 (colon carcinoma); Homo sapiens, SW-620, 72 h) [µM]	IC50 ([4]; Homo sapiens, HCT-116, 72 h) [µM]	IC50 (MCF-7 (breast carcinoma); Homo sapiens, MCF7, 72 h) [µM]	IC50 (H 460 (lung carcinoma); Homo sapiens, NCI-H460, 72 h) [µM]	Drug delivery at the basolateral site compared with sorafenib (CaCo-2 cell cultures)	IC50 (CEM (human lymphoma); Homo sapiens) [µM]	IC50 ([5]; Homo sapiens, Fibroblast) [µM]	IC50 (L1210 (murine leukemia); Mus musculus, L1210) [µM]	IC50 [6] [µM]	further results
Nc1ccc(Oc2ccnc(C(=O)NC3CCCC3)c2)cc1 [Compound 3a, 4-(4-Aminophenoxy)-N-cyclopentylpyridine-2-carboxamide]	> 100	> 100	77 ± 3.4	> 100	≥ 100	54 ± 21	53 ± 40	> 100	higher drug delivery at the basolateral site than sorafenib	≥ 100	> 100	121 ± 50.5		
O=C(Nc1ccc(Oc2ccnc(C(=O)NC3CCCC3)c2)cc1)Nc1ccc(Cl)c(C(F)(F)F)c1 [Compound 4a, 4-[4-[[4-Chloro-3-(trifluoromethyl)phenyl]carbamoylamino]phenoxy]-N-cyclopentyl-pyridine-2-carboxamide]	6.1 ± 0.7	12.5 ± 6.7	3.1 ± 0.6	7.7 ± 2.1	2 ± 0.4	3 ± 0.5	4 ± 1	1	less efficient than the reference compound	4.2 ± 0.6	2.8	4.2 ± 0.8		
Nc1ccc(Oc2ccnc(C(=O)NCc3ccccc3)c2)cc1 [Compound 3d, 4-(4-Aminophenoxy)-N-benzylpyridine-2-carboxamide]			94 ± 1.9		37 ± 6	29 ± 4	29 ± 13	42 ± 9		94 ± 2.2	> 100	66 ± 3.1	20 to 90	
O=C(NC1CCCC1)c1cc(Cl)ccn1 [Compound 2a, 4-Chloro-N-cyclopentylpyridine-2-carboxamide]	> 100	> 100	> 100	> 100	> 100	> 100	> 100	≥ 100	higher drug delivery at the basolateral site than sorafenib	> 100	> 100	> 100		
CNC(=O)c1cc(Oc2ccc(NC(=O)Nc3ccc(Cl)c(C(F)(F)F)c3)cc2)ccn1 [Sorafenib, 4-[4-[[4-chloro-3-(trifluoromethyl)phenyl]carbamoylamino]phenoxy]-N-methylpyridine-2-carboxamide]	12 ± 7	8.6 ± 1.1		7.1 ± 0.2										IC50 (HeLa (cervix carcinoma)): 3.7 ± 0.6 µM; IC50 (SW 620 (colon carcinoma); 72 h): 6 ± 1 µM; IC50 ([4]; 72 h): 3 ± 0.8 µM; IC50 (MCF-7 (breast carcinoma); 72 h): 3 ± 0.7 µM; IC50 (H 460 (lung carcinoma); 72 h): 3 ± 0.8 µM; IC50 (23 cell lines): 4.3 µM; IC50 (CEM (human lymphoma)): 3.4 ± 0.5 µM; IC50 [5]: 7.5 ± 0.7 µM; IC50 (L1210 (murine leukemia)): 4.1 µM
Nc1ccc(Oc2ccnc(C(=O)NCCc3ccccc3)c2)cc1 [Compound 3e, 4-(4-Aminophenoxy)-N-phenylethylpyridine-2-carboxamide]	> 100	> 100	39 ± 3	49.9 ± 17.9	20 ± 7	25 ± 2	34 ± 17	20		42 ± 3	> 100	63 ± 8.9	20 to 90	
